Measured values from patent US20240300945A1, “CLY SERIES COMPOUND, PREPARATION METHOD THEREFOR AND USE THEREOF IN PREPARATION OF DRUGS” (NANJING WELLBEST PHARMACEUTICAL CO., LTD, priority 2021, published 2024).

Test system: rat pulmonary fibrosis model
Assay: Rat pulmonary fibrosis model (bleomycin)
Assay type: in vivo, Wistar rats
Conditions: 3 mg/kg·d tail vein, 14 days; for VEGFprotein in lung tissue / MMP-2 expression in lung tissue / MMP-9 expression in lung tissue / TIMP-1 expression in lung tissue / VEGF-mRNA in lung tissue: rat lung; for VEGFprotein in lung tissue: ELISA; for MMP-2 expression in lung tissue / MMP-9 expression in lung tissue / TIMP-1 expression in lung tissue: immunohistochemistry; for VEGF-mRNA in lung tissue: reverse transcription PCR; for CAT in peripheral blood / SOD in peripheral blood: rat peripheral blood
Procedure: (1) Reagents: bleomycin (4 mg/dose, Tianjin Taihe Pharmaceutical Co., Ltd.), mouse anti-mouse MMP monoclonal antibody (NEO Mark-ers Company), mouse anti-mouse TIMP-1 polyclonal antibody (Wuhan Shide Company), enzyme-linked immunosorbent assay (ELISA) kit (R&D Company of the United States), Quantscript RT Kit reverse transcription kit (Dalian TaKaRa Company).
The rats were, according to the number of body weight, divided into the blank control group, model group, and CLY series treatment group by random array method, with 12 rats in each group, half male and half female. The rats in each group were anesthetized by intraperitoneal injection of 2% pentobarbital sodium ([…]), fixed on the operating table, and injected by tracheotomy in the neck. The blank control group was injected with normal saline (1.25 ml/kg), and the model group and CLY treatment group were injected with 5 U/mL bleomycin solution (5 mg/kg), once a day, for 14 consecutive days. From one week after the establishment of the model, the corresponding CLY compound solution (3 mg/kg·d) was injected into the tail vein of each treatment group, and the same amount of normal saline was injected into the tail vein of the blank control group and the model group, once a day, for 14 consecutive days.
The peripheral venous blood of animals in each group was taken from the tail vein after modeling and 14 days after treatment, and the levels of superoxide dismutase (SOD) and catalase (CAT) in peripheral blood were measured. After taking blood from each group, the rats were sacrificed twice (after modeling and 14 days of treatment). The right lung tissue of the animals was stored in a refrigerator at −4° C. for detection of VEGF. The left lung tissue was routinely embedded in paraffin and sectioned. The expression of MMP subtype and TIMP-1 in the lung tissue of the rats was detected by immunohistochemistry. The right lung tissue was ground and homogenized, and the supernatant was taken after 3000 r/min high-speed centrifugation. The lung tissue VEGF protein was detected by ELISA, and the expression of VEGF-mRNA was detected by reverse transcription polymerase chain reaction.

Structure (SMILES): O=C(c1ccc(-c2ccccc2Cl)cc1)N(c1ncccc1Cl)[C@@H]1CCCNC1 [CLY-36]
- VEGFprotein in lung tissue: 53.87 ± 3.73 pg/mL
- MMP-2 expression in lung tissue: 2.59 ± 0.23
- MMP-9 expression in lung tissue: 3.46 ± 0.25
- TIMP-1 expression in lung tissue: 7.63 ± 0.52
- VEGF-mRNA in lung tissue: 0.83 ± 0.13
- CAT in peripheral blood: 13.26 ± 1.26 kU/g
- SOD in peripheral blood: 221.76 ± 13.57 U/ml

Structure (SMILES): O=C(c1ccc(-n2nnc3cccnc32)cc1)N(c1ncccc1Cl)[C@@H]1CCNC1 [CLY-8, (R)-4-(3H-[1,2,3]triazolo[4,5-b]pyridin-3-yl)-N-(3-chloropyridin-2-yl)-N-(pyrrolidin-3-yl)benzamide]
- VEGFprotein in lung tissue: 53.16 ± 3.62 pg/mL
- MMP-2 expression in lung tissue: 2.44 ± 0.21
- MMP-9 expression in lung tissue: 3.31 ± 0.21
- TIMP-1 expression in lung tissue: 8.82 ± 0.53
- VEGF-mRNA in lung tissue: 0.79 ± 0.13
- CAT in peripheral blood: 14.75 ± 1.22 kU/g
- SOD in peripheral blood: 220.86 ± 13.78 U/ml

Structure (SMILES): CN1CCC[C@@H](N(C(=O)c2ccc(-n3nnc4cccnc43)cc2)c2ncccc2Cl)C1 [CLY-1, (R)-4-(3H-[1,2,3]triazolo[4,5-b]pyridin-3-yl)-N-(3-chloropyridin-2-yl)-N-(1-methylpiperidin-3-yl)benzamide]
- VEGFprotein in lung tissue: 52.16 ± 3.61 pg/mL
- MMP-2 expression in lung tissue: 2.43 ± 0.21
- MMP-9 expression in lung tissue: 3.32 ± 0.23
- TIMP-1 expression in lung tissue: 7.82 ± 0.45
- VEGF-mRNA in lung tissue: 0.76 ± 0.11
- CAT in peripheral blood: 14.13 ± 1.22 kU/g
- SOD in peripheral blood: 214.58 ± 13.53 U/ml

Structure (SMILES): CCN1CCC[C@@H](N(C(=O)c2ccc(-n3nnc4cccnc43)cc2)c2ncccc2Cl)C1 [CLY-2, (R)-4-(3H-[1,2,3]triazolo[4,5-b]pyridin-3-yl)-N-(3-chloropyridin-2-yl)-N-(1-ethylpiperidin-3-yl)benzamide]
- VEGFprotein in lung tissue: 51.18 ± 3.69 pg/mL
- MMP-2 expression in lung tissue: 2.51 ± 0.24
- MMP-9 expression in lung tissue: 3.36 ± 0.25
- TIMP-1 expression in lung tissue: 8.06 ± 0.49
- VEGF-mRNA in lung tissue: 0.71 ± 0.12
- CAT in peripheral blood: 14.28 ± 1.39 kU/g
- SOD in peripheral blood: 216.62 ± 13.55 U/ml

Structure (SMILES): NC1CCCC(N(C(=O)c2ccc(-n3nnc4cccnc43)cc2)c2ncccc2Cl)C1 (centres unmarked) [CLY-11]
- VEGFprotein in lung tissue: 49.86 ± 3.58 pg/mL
- MMP-2 expression in lung tissue: 2.52 ± 0.23
- MMP-9 expression in lung tissue: 3.53 ± 0.26
- TIMP-1 expression in lung tissue: 8.13 ± 0.38
- VEGF-mRNA in lung tissue: 0.76 ± 0.13
- CAT in peripheral blood: 13.96 ± 1.36 kU/g
- SOD in peripheral blood: 216.48 ± 13.16 U/ml
